Assay: Stability studies of example 1 formulation at different pH and buffer strength, visual precipitate (Table 3)
Format: physicochemical
Details: pH values below 6.0, over time
Method: Batches were prepared at various pHs in the range 5.6-6.0 and were prepared at ½, 1/10th and 1/20th the original buffer strength of example 1 (i.e. the citric acid monohydrate and disodium hydrogen phosphate dihydrate buffer system). The original buffer strength was taken from a citrate-phosphate buffer table (http://microscopy.berkeley.edu/Resources/instruction/buffers.html).
The stability studies were undertaken using the example 1 formulation but using either a citrate-phosphate buffer system at half the strength (i.e. 43 mmol) or 1/10th of the strength (i.e. 8.7 mmol) compared to that of example 1. The formulations were adjusted to 5 different pH values; 5.6, 5.7, 5.8, 5.9 and 6.0. One set of formulations were stored at 5° C. and one set of formulations were stored at 25° C. for each buffer strength and each pH value for the duration of the study. The study took place over a 6-month time period.

- Precipitation out of solution: precipitate out of solution over time
Structure (SMILES): CN(Cc1cnc2nc(N)nc(N)c2n1)c1ccc(C(=O)N[C@@H](CCC(=O)O)C(=O)O)cc1 [Methotrexate]
